Read-outs that look alike come from different tables or passages of the source. One block for each molecule: values may come before it.
Assays:
[1] = tested on: DLD-1 cells; assay: Inhibition of proliferation, DLD-1 BRCA2 wt control (Cell Titre Glo 3D); assay type: cell-based; details: for IC50: Homo sapiens
Method in brief: (§1)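 Cells are seeded in RPMI 1640 (phenol red free, 10% FBS, GlutaMAX) onto pre-dosed compound (10 μM to 0.51 nM, three-fold). Plates are incubated at 37 °C, and medium plus compound are refreshed on day 6. Viability is read by CellTiter-Glo 3D at day 7 (DLD-1) or day 12 (DLD-1 BRCA2−/−), and the IC50 is fitted.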

[2] = tested on: DLD-1 BRCA2−/− cells; assay: Homologous recombination synthetic lethal inhibition of proliferation, DLD-1 BRCA2-/- (Cell Titre Glo 3D); assay type: cell-based; details: for IC50: Homo sapiens
Method in brief: as §1

[3] = DLD-1, 168 h, DLD-1 BRCA2 wt cells, 7 days, read-out: POLQ PD Prolif Lumin DLD1 mean pIC50 (converted)
[4] = DLD-1, 288 h, DLD-1 BRCA2−/− cells, 12 days, read-out: POLQ PD Prolif Lumin BRCA2 −/− mean pIC50 (converted)
[5] = DLD-1, DLD1 BRCA2 wt, mean, read-out: POLQ PD Prolif Lumin DLD1 mean pIC50 (converted)
[6] = DLD-1, DLD-1 BRCA2 −/−, mean, read-out: POLQ PD Prolif Lumin BRCA2 −/− mean pIC50 (converted)
[7] = DLD-1, DLD1 BRCA2 wt cells, mean, read-out: POLQ PD Prolif Lumin DLD1 mean PIC50 (converted)
[8] = DLD-1, DLD-1 BRCA2 −/− cells, mean, read-out: POLQ PD Prolif Lumin BRCA2 −/− mean pIC50 (converted)
[9] = DLD-1, 168 h, DLD-1 (BRCA2 wt control), 7 days, Cell Titre Glo 3D, read-out: POLQ PD Prolif Lumin DLD1 Mean pIC50 (converted)
[10] = DLD-1, 288 h, DLD-1 BRCA2−/−, 12 days, Cell Titre Glo 3D, read-out: POLQ PD Prolif Lumin BRCA2 −/− Mean pIC50 (converted)
[11] = DLD-1, DLD-1 BRCA2 wt control proliferation, column head only partly shown, read-out: POLQ PD Prolif Lumin (converted)
[12] = DLD-1, DLD-1 BRCA2-/- proliferation, column head only partly shown, read-out: POLQ PD Prolif Lumin (converted)
[13] = DLD-1, second proliferation column (c6), DLD-1 BRCA2 wt control, read-out: POLQ PD Prolif Lumin (converted)
[14] = DLD-1, first proliferation column (c5), DLD-1 BRCA2-/-, read-out: POLQ PD Prolif Lumin (converted)

SMILES: CC1(Oc2ncnc3c2nc(-c2ccc(OCCN4CC5(CSC5)C4)cc2Cl)n3Cc2ccccc2)CC1 [Example H23, 6-(2-(4-(9-benzyl-6-(1-methylcyclopropoxy)-9H-purin-8-yl)-3-chlorophenoxy)ethyl)-2-thia-6-azaspiro[3.3]heptane]
IC50 [1, 3]: 2.51 µM
IC50 [2, 4]: 0.126 µM

SMILES: COc1ccc(Cl)cc1Cn1c(-c2ccc(OCC[C@@H](C)C(=O)O)cc2Cl)nc2c(OC3(C)CC3)ncnc21 [Example 47, (R)-4-(3-chloro-4-(9-(5-chloro-2-methoxybenzyl)-6-(1-methylcyclopropoxy)-9H-purin-8-yl)phenoxy)-2-methylbutanoic acid]
IC50 [1, 9]: > 7.94 µM
IC50 [2, 10]: 0.0251 µM

SMILES: CC1(Oc2ncnc3c2nc(-c2ccc(OCCN4CC5CC(C4)N5)cc2Cl)n3Cc2ccccc2)CC1 [Example R5, 3-(2-(4-(9-benzyl-6-(1-methylcyclopropoxy)-9H-purin-8-yl)-3-chlorophenoxy)ethyl)-3,6-diazabicyclo[3.1.1]heptane]
IC50 [1, 3]: 3.98 µM
IC50 [2, 4]: 0.1 µM

SMILES: CC(C)Oc1ccc2c(c1)nc(-c1ccc(OCCCN)cc1Cl)n2Cc1ccccc1 [Example 3, 3-(4-(1-Benzyl-5-isopropoxy-1H-benzo[d]imidazol-2-yl)-3-chlorophenoxy)propan-1-amine]
IC50 [1, 3]: 1.58 µM
IC50 [2, 4]: 1 µM

SMILES: Cc1cc(OCCCN(C)C)ncc1-c1nc2c(OC3(C)CC3)ncnc2n1Cc1ccccc1 [Example G2, 3-((5-(9-benzyl-6-(1-methylcyclopropoxy)-9H-purin-8-yl)-4-methylpyridin-2-yl)oxy)-N,N-dimethylpropan-1-amine]
IC50 [1, 3]: > 10 µM
IC50 [2, 4]: 1 µM

SMILES: CC1(Oc2ncnc3c2nc(-c2ccc(OCC(=O)N4CCNCC4)cc2Cl)n3Cc2ccccc2)CC1 [Example C8, 2-(4-(9-benzyl-6-(1-methylcyclopropoxy)-9H-purin-8-yl)-3-chloro-phenoxy)-1-(piperazin-1-yl)ethan-1-one]
IC50 [1, 3]: 6.31 µM
IC50 [2, 4]: 0.316 µM

SMILES: CC1(Oc2ncnc3c2nc(-c2ccc(OCCN4CC5(CNC5)C4)cc2Cl)n3Cc2ccccc2)CC1 [Example 18, 8-(4-(2-(2,6-Diazaspiro[3.3]heptan-2-yl)ethoxy)-2-chlorophenyl)-9-benzyl-6-(1-methylcyclopropoxy)-9H-purine]
IC50 [1, 3]: 5.01 µM
IC50 [2, 4]: 0.398 µM

SMILES: CC(=O)N1CCN(CCOc2cccc(-c3nc4c(OC5(C)CC5)ncnc4n3Cc3ccccc3)c2Cl)CC1 [Example D8, 1-(4-(2-(3-(9-benzyl-6-(1-methylcyclopropoxy)-9H-purin-8-yl)-2-chlorophenoxy)ethyl)piperazin-1-yl)ethan-1-one]
IC50 [1, 3]: 6.31 µM
IC50 [2, 4]: 0.0501 µM

SMILES: Cc1ccnc(Cn2c(-c3ccc(OCC(C)(C)O)cc3Cl)nc3c(OC4(C)CC4)ncnc32)c1 [Example 45, 1-(3-Chloro-4-(6-(1-methylcyclopropoxy)-9-((4-methylpyridin-2-yl)methyl)-9H-purin-8-yl)phenoxy)-2-methylpropan-2-ol]
IC50 [1, 9]: > 10 µM
IC50 [2, 10]: 0.2 µM

SMILES: C[C@@H](Cn1c(-c2ccc(OCCN3CCNCC3)cc2Cl)nc2c(OC3(C)CC3)ncnc21)c1ccccc1 [Example J10, (R)-8-(2-chloro-4-(2-(piperazin-1-yl)ethoxy)phenyl)-6-(1-methylcyclopropoxy)-9-(2-phenylpropyl)-9H-purine]
IC50 [1, 3]: 3.98 µM
IC50 [2, 4]: 0.631 µM

Continued, in another order:

IC50 ([1]; DLD-1, proliferation, luminescence, second Prolif column (c6), taken as DLD-1 BRCA2 wt control, read-out: POLQ PD Prolif Lumin (converted)): > 10 µM
SMILES: CC(CCOc1ccc(-c2nc3c(OC4(C)CC4)ncnc3n2Cc2ccccc2C#N)c(Cl)c1)C(=O)O (racemic) [Example T400, 4-(3-chloro-4-(9-(2-cyanobenzyl)-6-(1-methylcyclopropoxy)-9H-purin-8-yl)phenoxy)-2-methylbutanoic acid]
IC50 ([2]; DLD-1, proliferation, luminescence, taken as DLD-1 BRCA2-/-, read-out: POLQ PD Prolif Lumin (converted)): 0.251 µM

IC50 ([1]; DLD-1, second proliferation column, DLD-1 BRCA2 wt control, read-out: POLQ PD Prolif Lumin (converted)): > 10 µM
SMILES: COCc1cc(OCCN2CCN(C)CC2)ccc1-c1nc2c(OC3(C)CC3)ncnc2n1Cc1ccccc1 [Example T612, 9-benzyl-8-(2-(methoxymethyl)-4-(2-(4-methylpiperazin-1-yl)ethoxy)phenyl)-6-(1-methylcyclopropoxy)-9H-purine]
IC50 ([2]; DLD-1, first proliferation column, DLD-1 BRCA2-/-, read-out: POLQ PD Prolif Lumin (converted)): 1 µM

IC50 [1, 5]: > 10 µM
SMILES: COc1ccc(F)cc1Cn1c(-c2ccc(OCC[C@H](C)C(=O)O)cc2Cl)nc2c(OC3(C)CC3)ncnc21 [Example U68, (S)-4-(3-chloro-4-(9-(5-fluoro-2-methoxybenzyl)-6-(1-methylcyclopropoxy)-9H-purin-8-yl)phenoxy)-2-methylbutanoic acid]
IC50 [2, 6]: 0.0398 µM

IC50 [1, 7]: > 10 µM
SMILES: CC1(Oc2ncnc3c2nc(-c2ccc(OCCC(=O)O)cc2Cl)n3Cc2cccc(Cl)c2)CC1 [Example T87, 3-(3-chloro-4-(9-(3-chlorobenzyl)-6-(1-methylcyclopropoxy)-9H-purin-8-yl)phenoxy)propanoic acid]
IC50 [2, 8]: 0.398 µM

IC50 [1, 3]: > 10 µM
SMILES: Cc1ccc(Cn2c(-c3ccc(OCCN4CCNCC4)cc3Cl)nc3c(OC4(C)CC4)ncnc32)nc1 [Example L8, 8-(2-chloro-4-(2-(piperazin-1-yl)ethoxy)phenyl)-6-(1-methylcyclopropoxy)-9-((5-methylpyridin-2-yl)methyl)-9H-purine]
IC50 [2, 4]: 2 µM

IC50 [1, 7]: > 10 µM
SMILES: CNC(=O)c1ccc(-c2nc3c(OC4(C)CC4)ncnc3n2Cc2cc(C)ccn2)c(Cl)c1 [Example T52, 3-chloro-N-methyl-4-(6-(1-methylcyclopropoxy)-9-((4-methylpyridin-2-yl)methyl)-9H-purin-8-yl)benzamide]
IC50 [2, 8]: 0.501 µM

IC50 [1, 11]: > 10 µM
SMILES: Cc1cnc(Cn2c(-c3ccc(OC[C@H]4CCCN4C)cc3Cl)nc3c(OC4(C)CC4)ncnc32)s1 [Example T240, (R)-2-((8-(2-chloro-4-((1-methylpyrrolidin-2-yl)methoxy)phenyl)-6-(1-methylcyclopropoxy)-9H-purin-9-yl)methyl)-5-methylthiazole]
IC50 [2, 12]: 0.316 µM

IC50 [1, 11]: > 10 µM
SMILES: CC(CCOc1ccc(-c2nc3c(OC(C)(C)C(F)(F)F)ncnc3n2Cc2cccc(Cl)c2)c(Cl)c1)C(=O)O (racemic) [Example T274, 4-(3-chloro-4-(9-(3-chlorobenzyl)-6-((1,1,1-trifluoro-2-methylpropan-2-yl)oxy)-9H-purin-8-yl)phenoxy)-2-methylbutanoic acid]
IC50 [2, 12]: 0.316 µM

IC50 [1, 13]: > 10 µM
SMILES: CC(C)C(CCOc1ccc(-c2nc3c(OC4(C)CC4)ncnc3n2Cc2cccc(Cl)c2)c(Cl)c1)C(=O)O (racemic) [Example T566, 4-(3-chloro-4-(9-(3-chlorobenzyl)-6-(1-methylcyclopropoxy)-9H-purin-8-yl)phenoxy)-2-isopropylbutanoic acid]
IC50 [2, 14]: 0.158 µM

POLQ PD Prolif Lumin DLD1 mean pIC50 ([1]; DLD1 BRCA2 wt, mean): <5.1
SMILES: COc1ccc(Cl)cc1Cn1c(-c2ccc(O[C@H]3CC[C@@H](C(=O)O)CC3)cc2Cl)nc2c(OC3(C)CC3)ncnc21 [Example U40, (1s,4s)-4-(3-chloro-4-(9-(5-chloro-2-methoxybenzyl)-6-(1-methylcyclopropoxy)-9H-purin-8-yl)phenoxy)cyclohexane-1-carboxylic acid]
POLQ PD Prolif Lumin BRCA2 −/− mean pIC50 ([2]; DLD-1 BRCA2 −/−, mean): 7

IC50 [1, 13]: > 10 µM
SMILES: C[C@H]1CNCCN1CCOc1ccc(-c2nc3c(OC4(C)CC4)ncnc3n2Cc2cc(Cl)ccn2)c(Cl)c1 [Example T523, (S)-8-(2-chloro-4-(2-(2-methylpiperazin-1-yl)ethoxy)phenyl)-9-((4-chloropyridin-2-yl)methyl)-6-(1-methylcyclopropoxy)-9H-purine]
IC50 [2, 14]: 0.2 µM

IC50 ([1]; DLD-1, second proliferation column (c6), taken as DLD-1 BRCA2 wt, read-out: POLQ PD Prolif Lumin (converted)): > 7.94 µM
SMILES: CN(C)CCCOc1ccc(-c2nc3c(OC4(C)CC4)nccc3n2Cc2cc(Cl)ccn2)c(Cl)c1 [Example T377, 3-(3-chloro-4-(1-((4-chloropyridin-2-yl)methyl)-4-(1-methylcyclopropoxy)-1H-imidazo[4,5-c]pyridin-2-yl)phenoxy)-N,N-dimethylpropan-1-amine]
IC50 ([2]; DLD-1, first proliferation column (c5), taken as DLD-1 BRCA2-/-, read-out: POLQ PD Prolif Lumin (converted)): 0.158 µM

IC50 [1, 5]: > 10 µM
SMILES: COc1ccc(C)cc1Cn1c(-c2ccc(OCCC(C)C(=O)O)cc2Cl)nc2c(OC3(C)CC3)ncnc21 (racemic) [Example U1, 4-(3-chloro-4-(9-(2-methoxy-5-methylbenzyl)-6-(1-methylcyclopropoxy)-9H-purin-8-yl)phenoxy)-2-methylbutanoic acid]
IC50 [2, 6]: 0.0501 µM

Reference: patent publication US20250195530A1, “POLQ INHIBITORS” (ASTRAZENECA AB, priority 2022, published 2025)
